In patent publication US20200062696A1, “COMPOSITIONS AND METHODS FOR INHIBITING RETICULON 4” (THE REGENTS OF THE UNIVERSITY OF CALIFORNIA, priority 2017, published 2020):

Columns and labels:
[1] = tested on: SW620 tumor xenograft; experiment: SW620 tumor xenograft growth in immune-deficient SCID mice; assay type: in vivo; details: 50 mg/kg ip once per day, started ten days after subcutaneous injection of SW620 cells
Method: Tumor Xenograft Growth Studies. C.B17 SCID male mice (6-8 weeks old) were injected subcutaneously into the flank with 2,000,000 cells in serum-free media. For pharmacological treatments, mice were exposed by intraperitoneal (ip) injection with either vehicle (18:1:1 PBS/ethanol/PEG40) or 50 mg/kg DKM 3-30 once per day starting ten days after the initiation of the xenograft experiment and until the completion of the study. Tumors were measured every 7 days by caliper measurements. Animal experiments were conducted in accordance with the guidelines of the Institutional Animal Care and Use Committee of the University of California, Berkeley.

[2] = tested on: U2OS cells expressing GFP-tagged Sec61β; experiment: Time-lapse imaging of mitosis and nuclear envelope in U2OS cells expressing GFP-Sec61β; assay type: cell-based; details: DKM 3-30 50 μM
Method: FIGS. 4A-4C. DKM 3-30 disrupts nuclear envelope morphology during mitosis. (FIGS. 4A-4C) U2OS cells expressing GFP-tagged Sec61β were treated with vehicle (DMSO) or DKM 3-30 (50 μM) and the ER morphology of mitotic cells visualized by time-lapse fluorescence microscopy. Time (min) is indicated on each panel. Panels (FIGS. 4A, 4B) provide examples of mitotic cells. Enlarged images following mitosis show the nuclear envelope. White arrowheads indicate a GFP-Sec61β structure bisecting the nucleus of a cell incubated with DKM 3-30. […] Bottom panels indicate boxed region.
Fluorescence microscopy. SW620 and U2OS cells were transiently transfected with a plasmid encoding GFP-tagged Sec61β using fuGENE6 (Roche) according to the manufacturer's instructions. Transfected cells plated on poly-L-lysine treated coverslips were treated, washed in PBS, and fixed by incubation in 4% paraformaldehyde in PBS for 10 min. Fixed cells were washed extensively in PBS and nuclei stained by addition of 4′,6-diamidino-2-phenylindole (DAPI) (Thermo Fisher Scientific) for 10 min. Coverslips were mounted using Fluoromount-G (SouthernBiotech) and visualized using a DeltaVision Elite microscope outfitted with a 60× oil immersion objective. Acquired stacks of images of fixed cells were deconvolved and analyzed using SoftWoRx and ImageJ. […] Acquired images were analyzed using SoftWoRx and ImageJ.

Q: What does the source list for `C=CC(=O)Nc1ccc(Oc2ccc(Cl)cc2)cc1` [DKM 3-30, N-(4-(4-chlorophenoxy)phenyl)acrylamide]?
A: tumor xenograft growth [1]: initial regression and a sustained impairment in tumor growth; nuclear envelope morphology following mitosis [2]: aberrant nuclei that were bisected by GFP-Sec61β positive structures; duration of mitosis ([2]; control cells ~50-60 min): 3 to 4 h
